Experimental data taken from patent US20170305943A1, “COMPOUNDS FOR THE TREATMENT OF BACTERIAL INFECTIONS” (priority 2014, published 2017).
Values after ≈ are worked out from the molar mass of the structure shown.

Experiments:
Assay in all cases: Bacterial Assay: Determination of Antibacterial Activity (MIC, broth microdilution or agar dilution)
Assay type in all cases: cell-based
[1] = tested on: Clostridium difficile (Isolate ID ATCC 9689); conditions: Clostridioides difficile, ATCC9689, 48 h, read-out: C. difficile MIC Activity Range
Outline: (§1)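 MICs were set by CLSI broth microdilution or agar dilution for anaerobes, read visually after 48 hours at 37° C. under anaerobic gas packs. Medium was reinforced clostridial medium with 0.1% defibrinated horse blood; values are binned as A ≦1.01, B >1.0-4.0, C >4.0-16 μg/mL.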

[2] = tested on: Clostridium difficile (Isolate ID BI-9); conditions: Clostridioides difficile, 48 h, read-out: MIC (μg/mL) C. difficile (B-I9)
Outline: as §1

[3] = tested on: Clostridium difficile (Isolate ID 027-01); conditions: Clostridioides difficile, 48 h, read-out: MIC (μg/mL) C. difficile (027-01)
Outline: as §1

| Structure (SMILES) | MIC [1] [µg/mL] | MIC [2] [µg/mL] | MIC [3] [µg/mL] |
| --- | --- | --- | --- |
| CN(CCCCOc1ccc(OC(F)(F)F)cc1)c1ccc(F)c(C(N)=O)c1F [Compound 152, 2,6-difluoro-3-(methyl{4-[4-(trifluoromethoxy)phenoxy]butyl}amino) benzamide] | < 1.01 | 0.5 (≈ 1.2 µM) | 0.5 (≈ 1.2 µM) |
| NC(=O)c1c(F)ccc(OCCCCCc2ccc(C(F)(F)F)cc2)c1F [Compound 155, 2,6-difluoro-3-({5-[4-(trifluoromethyl)phenyl]pentyl}oxy)benzamide] | < 1.01 | 0.12 (≈ 0.31 µM) | 0.12 (≈ 0.31 µM) |
| NC(=O)c1c(F)ccc(OCCCCOc2ccc(S(F)(F)(F)(F)F)cc2)c1F [Compound 159] | < 1.01 | 0.12 (≈ 0.268 µM) | 0.12 (≈ 0.268 µM) |
| NC(=O)c1c(F)ccc(OCC#CCOc2ccc(OC(F)(F)F)cc2)c1F [Compound 160, 2,6-difluoro-3-({4-[4-(trifluoromethoxy)phenoxy]but-2-yn-1-yl}oxy)benzamide] | < 1.01 | 0.25 (≈ 0.623 µM) | 0.25 (≈ 0.623 µM) |
| NC(=O)c1c(F)ccc(OCCOCCOc2ccc(S(F)(F)(F)(F)F)cc2)c1F [Compound 161, 2,6-difluoro-3-(2-{2-[4-(pentafluoro-lambda~6~-sulfanyl)phenoxy]ethoxy}ethoxy)benzamide] | < 1.01 | 1 (≈ 2.16 µM) | 2 (≈ 4.32 µM) |
| Cc1sc(COc2ccc(F)c(C(N)=O)c2F)nc1-c1ccc(Cl)cc1 [Compound 189, 3-{[4-(4-chlorophenyl)-5-methyl-1,3-thiazol-2-yl]methoxy}-2,6-difluorobenzamide] | < 1.01 | 1 (≈ 2.53 µM) | 1 (≈ 2.53 µM) |
| NC(=O)c1c(F)ccc(OCc2ccnc(-c3ccc(Cl)cc3)n2)c1F [Compound 192, 3-{[2-(4-chlorophenyl)pyrimidin-4-yl]methoxy}-2,6-difluorobenzamide] | < 1.01 | 1 (≈ 2.66 µM) | 1 (≈ 2.66 µM) |
| NC(=O)c1c(F)ccc(OCc2cccc(-c3ccc(Cl)cc3)n2)c1F [Compound 194, 3-{[6-(4-chlorophenyl)pyridin-2-yl]methoxy}-2,6-difluorobenzamide] | < 1.01 | 0.5 (≈ 1.33 µM) | 0.5 (≈ 1.33 µM) |
| NC(=O)c1c(F)ccc(OCc2nc(C#Cc3cccc(Cl)c3)cs2)c1F [Compound 198, 3-({4-[(3-chlorophenyl)ethynyl]-1,3-thiazol-2-yl}methoxy)-2,6-difluorobenzamide] | < 1.01 | 0.25 (≈ 0.618 µM) | 0.12 (≈ 0.296 µM) |
| NC(=O)c1c(F)ccc(OCc2nc(-c3ccc(Cl)s3)cs2)c1F [Compound 203, 3-{[4-(5-chlorothiophen-2-yl)-1,3-thiazol-2-yl]methoxy}-2,6-difluorobenzamide] | < 1.01 | 1 (≈ 2.59 µM) | 0.5 (≈ 1.29 µM) |
| CNC(=N)c1cccc(OCc2nc(-c3ccc(Cl)cc3)ns2)c1F [Compound 205, 3-{[3-(4-chlorophenyl)-1,2,4-thiadiazol-5-yl]methoxy}-2-fluoro-N-methylbenzenecarboximidamide] | 4 to 16 (≈ 10.6 to 42.5 µM) | 16 (≈ 42.5 µM) | 16 (≈ 42.5 µM) |
| COc1ncc(-c2csc(COc3ccc(F)c(C(N)=O)c3F)n2)s1 [Compound 207, 2,6-difluoro-3-[(2′-methoxy-4,5′-bi-1,3-thiazol-2-yl)methoxy]benzamide] | 1 to 4 (≈ 2.61 to 10.4 µM) | 4 (≈ 10.4 µM) | 4 (≈ 10.4 µM) |
| NC(=O)c1c(F)ccc(OCc2nc(-c3ccc(C(F)(F)F)cc3)c(Br)o2)c1F [Compound 208, 3-({5-bromo-4-[4-(trifluoromethyl)phenyl]-1,3-oxazol-2-yl}methoxy)-2,6-difluorobenzamide] | < 1.01 | 0.06 (≈ 0.126 µM) | 0.06 (≈ 0.126 µM) |
| NC(=O)c1c(F)ccc(OCc2nc(-c3ccc(OC(F)(F)F)cc3)c(Br)o2)c1F [Compound 209, 3-({5-bromo-4-[4-(trifluoromethoxy)phenyl]-1,3-oxazol-2-yl}methoxy)-2,6-difluorobenzamide] | < 1.01 | 0.25 (≈ 0.507 µM) | 0.12 (≈ 0.243 µM) |
| NC(=O)c1c(F)ccc(OCc2nc(-c3ccc(OC(F)(F)F)cc3)c(C(F)(F)F)o2)c1F [Compound 213, 2,6-difluoro-3-({4-[4-(trifluoromethoxy)phenyl]-5-(trifluoromethyl)-1,3-oxazol-2-yl}methoxy)benzamide] | < 1.01 | 0.25 (≈ 0.518 µM) | 0.12 (≈ 0.249 µM) |
